Tested on: BE(2)-C cell
Assay: Cell proliferation assay (MTS) in BE(2)-C cells
Assay type: cell-based
Conditions: Homo sapiens, inhibition of BE(2)-C cell proliferation, 48 h
Experimental: MTS testing kit was purchased from Promega. The DMEM, Fetal bovine serum and Penicillin-Streptomycin were purchased from Gibco. Dimethyl sulfoxide (DMSO) was purchased from Sigma.
To investigate whether a compound is able to inhibit the activity of CDK4/6 in cells, mechanism-based assays using BE(2)-C cell (ATCC® number:CRL-2268) were developed. In the assay, inhibition of CDK4/6 was detected by the inhibition of BE(2)-C cell cells proliferation. BE(2)-C cell cells were cultured in culture flasks to 40-80% confluence in DMEM plus 10% fetal bovine serum. Cells were collected and plated onto 96-well plates at cell density of 3000 cells/well. Plates were incubated overnight at 37° C., with 5% CO2 to adhere. Compounds were added to the plates, the final compound concentrations were 10000, 3333, 1111, […], 123.5, 41.2, 13.7, 4.6 and 1.5 nM. Place plates at 37° C., with 5% CO2 for 48 h. After removing the medium, 20 μl MTS/100 μl medium mixture solution were added to each well and incubate the plates for exactly 2 hours. The reaction was terminated by adding 25 μl 10% SDS per well. Measure absorbance at 490 nm and 650 nm (reference wavelength). IC50 was calculated using GraphPad Prism 5.0.
Select compounds prepared as described above were assayed according to the biological procedures described herein. “++++” stands for IC50 value below about 10 nM. “+++” stands for IC50 value between greater than about 10 nM to about 100 nM. “++” stands for IC50 value between greater than about 100 nM to about […]. “+” stands for IC50 value greater than 1 μM.

`CCN1CCC2(CC1)CN(Cc1ccc(Nc3ncc(F)c(-c4cc(F)c5nc6n(c5c4)C(C)(C)CC6)n3)nc1)C2` [Example 113, N-(5-((7-ethyl-2,7-diazaspiro[3.5]nonan-2-yl)methyl)pyridin-2-yl)-5-fluoro-4-(5-fluoro-1,1-dimethyl-2,3-dihydro-1H-benzo[d]pyrrolo[1,2-a]imidazol-7-yl)pyrimidin-2-amine] showed an IC50 of less than 10 nM.
In the case of `Fc1cnc(Nc2ccc(CN3CC4(CNC4)C3)cn2)nc1-c1cc(F)c2nc3n(c2c1)[C@H](C(F)F)CC3` [Example 45, (S)-N-(5-((2,6-diazaspiro[3.3]heptan-2-yl)methyl)pyridin-2-yl)-4-(1-(difluoromethyl)-5-fluoro-2,3-dihydro-1H-benzo[d]pyrrolo[1,2-a]imidazol-7-yl)-5-fluoropyrimidin-2-amine], the IC50 is reported as greater than 1000 nM.
With `CC1(C)CCc2nc3c(F)cc(-c4cc(Nc5ccc(CN6C7CCC6CNC7)cn5)ncc4F)cc3n21` [Example 161, N-(5-((3,8-diazabicyclo[3.2.1]octan-8-yl)methyl)pyridin-2-yl)-5-fluoro-4-(5-fluoro-1,1-dimethyl-2,3-dihydro-1H-benzo[d]pyrrolo[1,2-a]imidazol-7-yl)pyridin-2-amine] the IC50 was greater than 100 nM.
In the case of `CCN1CC2CN(Cc3ccc(Nc4ncc(F)c(-c5cc(F)c6nc7n(c6c5)[C@H](C)CC7)n4)nc3)CC2C1` (stereo partly drawn) [Example 100, N-(5-((5-ethylhexahydropyrrolo[3,4-c]pyrrol-2(1H)-yl)methyl)pyridin-2-yl)-5-fluoro-4-((R)-5-fluoro-1-methyl-2,3-dihydro-1H-benzo[d]pyrrolo[1,2-a]imidazol-7-yl)pyrimidin-2-amine], the IC50 is reported as 10 to 100 nM.
Work on `CCN1CC2(C1)CN(Cc1ccc(Nc3ncc(F)c(-c4cc(F)c5nc6n(c5c4)[C@H](C)CC6)n3)nc1)C2` [Example 97, (R)-N-(5-((6-ethyl-2,6-diazaspiro[3.3]heptan-2-yl)methyl)pyridin-2-yl)-5-fluoro-4-(5-fluoro-1-methyl-2,3-dihydro-1H-benzo[d]pyrrolo[1,2-a]imidazol-7-yl)pyrimidin-2-amine] yielded an IC50 of 10 to 100 nM.
In the case of `CN1CCN(Cc2ccc(Nc3ncc(F)c(-c4cc(F)c5nc6n(c5c4)CCC6)n3)nc2)CC1` [Example 150, 5-fluoro-4-(5-fluoro-2,3-dihydro-1H-benzo[d]pyrrolo[1,2-a]imidazol-7-yl)-N-(5-((4-methyl-piperazin-1-yl)methyl)pyridin-2-yl)pyrimidin-2-amine], the IC50 is reported as 10 to 100 nM.
For `CN1CCC2(CC1)CCN(Cc1ccc(Nc3ncc(F)c(-c4cc(F)c5nc6n(c5c4)C(C)(C)CC6)n3)nc1)CC2` [Example 121, 5-fluoro-4-(5-fluoro-1,1-dimethyl-2,3-dihydro-1H-benzo[d]pyrrolo[1,2-a]imidazol-7-yl)-N-(5-((9-methyl-3,9-diazaspiro[5.5]undecan-3-yl)methyl)pyridin-2-yl)pyrimidin-2-amine], the IC50 was greater than 100 nM.
`Fc1cnc(Nc2ccc(CN3C4CCC3CNC4)cn2)nc1-c1cc(F)c2nc3n(c2c1)[C@H](C(F)F)CC3` [Example 54, N-(5-((3,8-diazabicyclo[3.2.1]octan-8-yl)methyl)pyridin-2-yl)-4-((S)-1-(difluoromethyl)-5-fluoro-2,3-dihydro-1H-benzo[d]pyrrolo[1,2-a]imidazol-7-yl)-5-fluoropyrimidin-2-amine] gave an IC50 greater than 100 nM.
`CN1CC2CCC(C1)N2Cc1ccc(Nc2ncc(F)c(-c3cc(F)c4nc5n(c4c3)[C@H](C(F)(F)F)CC5)n2)nc1` [Example 77, 5-fluoro-4-((S)-5-fluoro-1-(trifluoromethyl)-2,3-dihydro-1H-benzo[d]pyrrolo[1,2-a]imidazol-7-yl)-N-(5-((3-methyl-3,8-diazabicyclo[3.2.1]octan-8-yl)methyl)pyridin-2-yl)pyrimidin-2-amine] showed an IC50 of 10 to 100 nM.
`CN1CC2CN(Cc3ccc(Nc4ncc(F)c(-c5cc(F)c6nc7n(c6c5)[C@H](C(F)F)CC7)n4)nc3)CC2C1` (stereo partly drawn) [Example 49, 4-((S)-1-(difluoromethyl)-5-fluoro-2,3-dihydro-1H-benzo[d]pyrrolo[1,2-a]imidazol-7-yl)-5-fluoro-N-(5-((5-methylhexahydropyrrolo[3,4-c]pyrrol-2(1H)-yl)methyl)pyridin-2-yl)pyrimidin-2-amine] was tested, and the IC50 was 10 to 100 nM.
`CC1CCc2nc3c(F)cc(-c4nc(Nc5ccc(CN6CCNCC6)cn5)ncc4F)cc3n21` (stereo in doubt) [Example 155, (R)-5-fluoro-4-(5-fluoro-1-methyl-2,3-dihydro-1H-benzo[d]pyrrolo[1,2-a]imidazol-7-yl)-N-(5-(piperazin-1-ylmethyl)pyridin-2-yl)pyrimidin-2-amine] gave an IC50 greater than 100 nM.
With `C[C@@H]1CCc2nc3c(F)cc(-c4nc(Nc5ccc(CN6CCC7(CCN(C)CC7)CC6)cn5)ncc4F)cc3n21` [Example 93, (R)-5-fluoro-4-(5-fluoro-1-methyl-2,3-dihydro-1H-benzo[d]pyrrolo[1,2-a]imidazol-7-yl)-N-(5-((9-methyl-3,9-diazaspiro[5.5]undecan-3-yl)methyl)pyridin-2-yl)pyrimidin-2-amine] the IC50 was greater than 100 nM.
For `COC[C@@H]1CCc2nc3c(F)cc(-c4nc(Nc5ccc(CN6CCNCC6)cn5)ncc4F)cc3n21` [Example 7, (S)-5-fluoro-4-(5-fluoro-1-(methoxymethyl)-2,3-dihydro-1H-benzo[d]pyrrolo[1,2-a]imidazol-7-yl)-N-(5-(piperazin-1-ylmethyl)pyridin-2-yl)pyrimidin-2-amine], the IC50 was greater than 100 nM.
`CCN1CCC2(CC1)CN(Cc1ccc(Nc3ncc(F)c(-c4cc(F)c5nc6n(c5c4)[C@H](C)CC6)n3)nc1)C2` [Example 91, (R)-N-(5-((7-ethyl-2,7-diazaspiro[3.5]nonan-2-yl)methyl)pyridin-2-yl)-5-fluoro-4-(5-fluoro-1-methyl-2,3-dihydro-1H-benzo[d]pyrrolo[1,2-a]imidazol-7-yl)pyrimidin-2-amine] showed an IC50 of 10 to 100 nM.
`CN1CC2CCC(C1)N2Cc1ccc(Nc2cc(-c3cc(F)c4nc5n(c4c3)C(C)(C)CC5)c(F)cn2)nc1` [Example 162, 5-fluoro-4-(5-fluoro-1,1-dimethyl-2,3-dihydro-1H-benzo[d]pyrrolo[1,2-a]imidazol-7-yl)-N-(5-((3-methyl-3,8-diazabicyclo[3.2.1]octan-8-yl)methyl)pyridin-2-yl)pyridin-2-amine] showed an IC50 greater than 1000 nM.
`CCN1CCC2(CC1)CN(Cc1ccc(Nc3ncc(F)c(-c4cc(F)c5nc6n(c5c4)[C@H](C(F)(F)F)CC6)n3)nc1)C2` [Example 63, (S)-N-(5-((7-ethyl-2,7-diazaspiro[3.5]nonan-2-yl)methyl)pyridin-2-yl)-5-fluoro-4-(5-fluoro-1-(trifluoromethyl)-2,3-dihydro-1H-benzo[d]pyrrolo[1,2-a]imidazol-7-yl)pyrimidin-2-amine] was tested, and the IC50 was 10 to 100 nM.
In the case of `CCN1CC2(C1)CN(Cc1ccc(Nc3ncc(F)c(-c4cc(F)c5nc6n(c5c4)[C@H](C(F)(F)F)CC6)n3)nc1)C2` [Example 69, (S)-N-(5-((6-ethyl-2,6-diazaspiro[3.3]heptan-2-yl)methyl)pyridin-2-yl)-5-fluoro-4-(5-fluoro-1-(trifluoromethyl)-2,3-dihydro-1H-benzo[d]pyrrolo[1,2-a]imidazol-7-yl)pyrimidin-2-amine], the IC50 is reported as 10 to 100 nM.
For `CN1CCN(Cc2ccc(Nc3ncc(F)c(-c4cc(F)c5nc6n(c5c4)C4(CC6)CC4)n3)nc2)CC1` [Example 14, 5-fluoro-4-(5-fluoro-2,3-dihydrospiro[benzo[d]pyrrolo[1,2-a]imidazole-1,1′-cyclopropan]-7-yl)-N-(5-((4-methylpiperazin-1-yl)methyl)pyridin-2-yl)pyrimidin-2-amine], the IC50 was greater than 100 nM.
Work on `CCN1CCN(c2ccc(Nc3ncc(F)c(-c4cc(F)c5nc6n(c5c4)[C@H](C(F)F)CC6)n3)nc2)CC1` [Example 40, (S)-4-(1-(difluoromethyl)-5-fluoro-2,3-dihydro-1H-benzo[d]pyrrolo[1,2-a]imidazol-7-yl)-N-(5-(4-ethylpiperazin-1-yl)pyridin-2-yl)-5-fluoropyrimidin-2-amine] yielded an IC50 greater than 1000 nM.
`CN1CCN(Cc2ccc(Nc3ncc(F)c(-c4cc(F)c5nc6n(c5c4)[C@H](CF)CC6)n3)nc2)CC1` [Example 5, (S)-5-fluoro-4-(5-fluoro-1-(fluoromethyl)-2,3-dihydro-1H-benzo[d]pyrrolo[1,2-a]imidazol-7-yl)-N-(5-((4-methylpiperazin-1-yl)methyl)pyridin-2-yl)pyrimidin-2-amine] was tested, and the IC50 was greater than 100 nM.
`CCN1CCC2(CC1)CCN(Cc1ccc(Nc3ncc(F)c(-c4cc(F)c5nc6n(c5c4)[C@H](C(F)(F)F)CC6)n3)nc1)CC2` [Example 72, (S)-N-(5-((9-ethyl-3,9-diazaspiro[5.5]undecan-3-yl)methyl)pyridin-2-yl)-5-fluoro-4-(5-fluoro-1-(trifluoromethyl)-2,3-dihydro-1H-benzo[d]pyrrolo [1,2-a]imidazol-7-yl)pyrimidin-2-amine] was tested, and the IC50 was 10 to 100 nM.
Work on `Fc1cnc(Nc2ccc(CN3CCNCC3)cn2)nc1-c1cc(F)c2nc3n(c2c1)[C@H](C(F)F)CC3` [Example 10, (S)-4-(1-(difluoromethyl)-5-fluoro-2,3-dihydro-1H-benzo[d]pyrrolo[1,2-a]imidazol-7-yl)-5-fluoro-N-(5-(piperazin-1-ylmethyl)pyridin-2-yl)pyrimidin-2-amine] yielded an IC50 greater than 100 nM.

Source: US10450316B2, “Certain protein kinase inhibitor” (Chongqing Fochon Pharmaceutical Co., Ltd., priority 2015, dated 2019)
